Measurements taken from US20080153872A1, “Bis-(Coumarin) Compounds With Anti-Inflammatory Activity” (priority 2005, published 2008).

Biological target: T1, Human recombinant Lck (Homo sapiens, UniProt P06239)
T1 construct: made in house; host or cells: Sf21 insect cells
Test: Human protein tyrosine kinase, Lck, inhibition assay
Assay type: biochemical
Conditions: 10 μM
Procedure: All compounds were dissolved in dimethyl sulfoxide (DMSO). Final concentration of the DMSO in all tests was 1% (v/v). Inhibition in all tests is considered preferred if it exceeds 50% at 10 μM concentration (or less).
Human recombinant Lck is expressed in insect Sf21 expression system and purified. Substances are pre-incubated for 15 minutes at 25° C. in HEPES buffer containing ATP, pervanadate and magnesium. Substrate (poly Glu-Tyr) is added and incubated for 60 minutes at 25° C. Activity of the enzyme is measured using phosphotyrosine (p-Tyr) specific enzyme immunoassay and inhibition is calculated from the determination of the concentration of p-Tyr. Protein tyrosine kinase, Lck, is a protein tyrosine kinase which is abundantly expressed in T-lymphocytes and is essential for T-cell receptor signal transduction and thus activation of T-lymphocytes. Lck activation stimulates recruitment and activation of ZAP-70, which is essential for T-cell activation. Inhibitors of Lck act as immunoregulatory agents in various models. Lck is implicated in T-cell leukemias and inflammation.

T1 sequence (P06239 whole entry): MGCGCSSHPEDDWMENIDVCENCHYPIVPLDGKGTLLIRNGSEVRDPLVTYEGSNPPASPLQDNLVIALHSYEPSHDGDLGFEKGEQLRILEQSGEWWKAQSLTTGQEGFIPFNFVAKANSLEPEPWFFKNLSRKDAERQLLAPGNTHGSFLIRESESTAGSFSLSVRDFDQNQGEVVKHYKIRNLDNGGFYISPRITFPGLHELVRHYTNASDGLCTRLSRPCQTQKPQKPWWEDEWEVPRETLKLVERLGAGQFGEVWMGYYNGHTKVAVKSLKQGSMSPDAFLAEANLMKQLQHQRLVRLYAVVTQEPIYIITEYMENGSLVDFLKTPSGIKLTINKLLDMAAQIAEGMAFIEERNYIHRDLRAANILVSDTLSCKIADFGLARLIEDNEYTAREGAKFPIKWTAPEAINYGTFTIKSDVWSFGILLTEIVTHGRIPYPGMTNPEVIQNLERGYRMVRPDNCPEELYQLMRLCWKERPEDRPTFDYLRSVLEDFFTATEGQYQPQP

## CC(=O)C(c1c(O)c2cccc(C(C)C)c2oc1=O)c1c(O)c2cccc(C(C)C)c2oc1=O [Example 19]
  inhibition of human Lck activity: significantly inhibited
